According to patent publication US20140121236A1, “Compositions and Methods for Treating Myotonic Dystrophy Type 1” (UNIVERSITY OF SOUTHERN CALIFORNIA, priority 2012, published 2014):

How the values were obtained:
[1] = test system: CUG-RNA foci in DM1 myoblasts; experiment: FISH analysis of nuclear CUG-RNA foci in DM1 myoblasts; type: cell-based, human; settings: 4 days
Method: DM1 myoblasts were then treated with 10 μM of either RCN-001 or the vehicle (DMSO) for 4 days and then examined by FISH using a Cy3 (CAG)10 probe.
Normal myoblasts were purchased from Lonza, Inc. DM1 myoblasts were a gift from Dr. Charles Thornton. Normal and DM1 myoblasts were maintained in SkGM Medium (Lonza, Inc.) containing 10% Fetal Bovine Serum and 1% Penicillin-Streptomycin, 5% CO2 at 37° C. Human Embryonic Kidney 293 Cells (293HEK) were maintained in Dulbecco's Modification of Eagle's Medium (DMEM) from Cellgro supplemented with 10% Fetal Bovine Serum and 1% Penicillin-Streptomycin, 5% CO2 at 37° C.
(§1) CUG-RNA foci were detected by performing FISH on untreated DM1 myoblasts and DM1 myoblasts following treatment. For FISH analysis, DM1 myoblasts were plated on a 24-well clear bottom polystyrene plate with circular glass coverslips followed by treatment. Prior to FISH analysis, cells were fixed using 4% paraformaldehyde in 1×PBS for 20 min at room temperature. FISH analysis was performed using a Cy3 conjugated (CAG)10 oligonucleotide probe (Integrated DNA Technologies, Inc.) as described by Taneja et al, 1995 and Dansithong et al, 2005. CUG-RNA foci were observed as a red signal using fluorescence microscopy. Immunofluorescence was performed as described by Dansithong et al, 2008. Endogenous SHARP was detected using SHARP polyclonal antibodies from Bethyl at a dilution of 1:1000. The secondary antibodies conjugated with FITC (Invitrogen) were used at a 1:2000 dilution. Chloride channel 1 (Clcn1 a.k.a. CIC-1) was detected using CIC-1 polyclonal antibodies from Santa Cruz. The secondary antibodies conjugated with Alexa Flour 488 (Invitrogen) were used at a 1:2000 dilution. FISH analysis in mouse muscle section was carried out as described in Mancodi et al, 2000 (9).

[2] = test system: CUG-RNA foci in DM1 myoblasts; experiment: as above; type: cell-based, human; settings: 2 μM, 4 days (not shown)
[3] = test system: Clcn1; experiment: Anti-Clcn1 staining of gastrocnemius muscle sections of HSALR mice; type: in vivo; settings: 14 days treatment
Description: For all animals the recording electrode was inserted into the test muscle 20 times. The number of myotonic runs ≧1 second in the gastrocnemius muscle of individual HSA^LR mice treated with either the saline control or RCN-001 are shown.
Importantly, RCN-001 reduces the number of myotonic runs of ≧1 second (p<0.05) (FIG. 5), total time of myotonic runs ≧1 sec (4.04 s±2.9 vehicle; 0.99 s±1.4 RCN-001; p<0.05) and length of the longest run (1.96 s±0.97 vehicle; 0.73 s±0.71 RCN-001; p<0.05) in the gastrocnemius muscle of HSA^LR mice. […] Methods are detailed in the legend of FIG. 5.
as §1, with “Immunofluorescence was performed as described by Dansithong et al, 2008.” left out, “The secondary antibodies conjugated with FITC (Invitrogen) were used at a 1:2000 dilution.” left out, “The secondary antibodies conjugated with Alexa Flour 488 (Invitrogen) were used at a 1:2000 dilution. FISH analysis in mouse muscle section was carried out as described in Mancodi et al, 2000 (9).” left out

[4] = test system: Clcn1, lbd3 and Serca-1 RNA splicing in HSALR mice; experiment: RT-PCR splicing analysis of skeletal muscle RNA of treated HSALR mice; type: in vivo; settings: 40 mg/kg i.p. each day for 7 days
Description: A. Total RNA was isolated from age and gender matched wild-type mice, HSA^LR mice and HSA^LR mice treated with either saline or 40 mgs/kg of RCN-001 injected i.p. once a day for 7 days. Subsequent to treatment RNA was isolated from skeletal muscles and subjected to RT-PCR analysis using the indicated primers sets for Clcn1, Lbd3 and Serca-1 RNAs. GAPDH RNA was amplified in parallel as an internal control. The results of two experiments are shown. B. Bar graph representation of rescue achieved is shown. C. The relative levels of exon inclusion was measured by densitometry and tabulated as mean % exon inclusion +/− standard deviation.
(§2) Furthermore, CUG foci, abnormal RNA splicing, myotonia and reduced Clcn1 protein levels are reversed in HSA^LR mice treated with RCN-001: Age and gender matched HSA^LR mice were treated with either vehicle or 40/mgs/kg of RCN-001 injected i.p. each day for 7 days. After treatment CUG foci were examined and RNA isolated from skeletal muscle was subjected to RT-PCR analysis to examine the efficacy of RCN-001 in correcting the splice defects of Clcn1, lbd3 and Serca-1 RNAs, which are abnormally spliced in DM1 (20).
Treatment in HSALR mice. […]
The relative band intensities were quantified by densitometry analyses and the percent of exon inclusion was calculated as [exon inclusion/(exon inclusion+exon exclusion)]×100.

[5] = test system: DM1 myoblasts; experiment: Viability of DM1 myoblasts by counting surviving cells; type: cell-based, human; settings: Table 1, 10 μM, 4 days, surviving cells vs vehicle control
[6] = test system: SHARP; experiment: Nuclear SHARP levels in treated HSALR mice; type: in vivo; settings: 40 mg/kg i.p. each day for 7 days (not shown)
Method: as §2
as §1, with “Immunofluorescence was performed as described by Dansithong et al, 2008.” left out, “The secondary antibodies conjugated with FITC (Invitrogen) were used at a 1:2000 dilution.” left out, “The secondary antibodies conjugated with Alexa Flour 488 (Invitrogen) were used at a 1:2000 dilution. FISH analysis in mouse muscle section was carried out as described in Mancodi et al, 2000 (9).” left out

With `CCCCCCc1cc2cc(-c3nnc(-c4cccc(OC)c4)o3)c(=O)oc2cc1O` [RCN-001] the “decrease in cells containing 3 or more foci” value ([1]; 10 μM, vs vehicle (DMSO)) was ~5 fold, the “increase in cells containing no foci” value ([1]; 10 μM, vs vehicle (DMSO)) was ~10 fold and the “# of Foci (percentage) 0-1: Percentage of cells with no or 1 nuclear foci” value ([1]; Table 1, 10 μM, FISH) was 48 percentage. The “# of Foci (percentage) >2: Percentage of cells with 2 or greater nuclear foci” value ([1]; Table 1, 10 μM, FISH) was 52 percentage, the “decrease in cells containing 3 or more foci” value [2] was 2 fold and the “increase in cells containing no foci” value [2] was 5 fold. For the same molecule, the “chloride channel (Clcn1) levels” value [3] was “re-establish normal chloride channel levels”, the “rescue of splice defects of Clcn1, lbd3 and Serca-1 RNAs” value [4] was “achieved rescue of splice defects that was comparable to results obtained with AON” and the “Toxicity: Viable” value [5] was “++ (30-40% cell survival)”. For the same molecule, the “nuclear SHARP levels” value [6] was “allowed nuclear SHARP levels to be re-established”.
